The record followed here is ChEMBL document CHEMBL5724696, “Autophagy assay results for EUbOPEN Chemogenomics Library” (2024).

The test system of this experiment is TERT-RPE1. Kind of experiment: Here: values are normalized to the negative (DMSO; defined as 0% autophagy induction) and positive (250nM Torin1; mTOR inhibitor; defined as maximal inducer of autophagy = 100%) control compounds and represented as % of autophagy induction. […] The impact of autophagy induction on cells is complex and depends on the affected target. As such, the magnitude of a phenotype may not be equally mirrored in the %-value of autophagy induction and vice versa. The dynamics of the induction may indicate the mode of activation: e.g. activation via phosphorylation or a signaling cascade may occur fast, while activation via transcription factors may take considerably longer. […] Of note, treatment concentrations may be sub-optimal for specific compounds, leading to false negative annotations. The experiment is classed as functional, Homo sapiens. As to conditions: Culturing Media DMEM/F12 (1:1), 1 % Penicillin/Streptomycin, 10% Fetal bovin serum Add-On: No, Screening Media Control DMEM/F12 (1:1), Screening Media Samples DMEM/F12 (1:1).

The mark [1] stands for this setting: Compound Concentration 1 uM, Timepoint 12 hours.
[2] abbreviates: Compound Concentration 1 uM, Timepoint 24 hours.
The mark [3] stands for this setting: Compound Concentration 1 uM, Timepoint 36 hours.
The mark [4] stands for this setting: Compound Concentration 1 uM, Timepoint 60 hours.

With `Cc1oc2ccccc2c1Cc1cc(I)c(OCC(=O)O)c(I)c1`, the autophagy induction by setting is: (Compound Concentration 3 uM, Timepoint 12 hours) -1.169%; (Compound Concentration 3 uM, Timepoint 24 hours) 9.702%; (Compound Concentration 3 uM, Timepoint 36 hours) 19.9109%; (Compound Concentration 3 uM, Timepoint 60 hours) -4.505%.

With `CC(=O)Oc1ccc2c(c1)[C@@]1(C)CCC[C@](C)(C(=O)OC(=O)[C@@]3(C)CCC[C@]4(C)c5cc(OC(C)=O)ccc5CC[C@@H]34)[C@@H]1CC2` [ACETYL PODOCARPIC ACID ANHYDRIDE], the autophagy induction by setting is: under setting [1], -1.145%; under setting [2], -5.055%; under setting [3], -3.143%; under setting [4], -11.9263%.

On to `CCCCc1oc2ccccc2c1C(=O)c1cc(I)c(OCCN(CC)CC)c(I)c1.Cl` [AMIODARONE HYDROCHLORIDE], for which the autophagy induction under setting [1] was -399.679%, the autophagy induction under setting [2] is given as -0.6341%, the autophagy induction under setting [3] is recorded as 14.6432% and the autophagy induction under setting [4] was -20.4662%.

For `COc1cc2c(cc1CC=C(C)C)C(=O)C[C@@H](c1ccc(O)cc1)O2` [BAVACHININ A], the autophagy induction is, setting by setting: under setting [1], -6.984%; under setting [2], -10.3298%; under setting [3], -14.6991%; under setting [4], 1.68%.

On to `CC(C)(O)c1cn(-c2ccc(-c3cccc(S(C)(=O)=O)c3)cc2)c(C(C)(C)c2ccccc2Cl)n1` [BMS-779788], for which the autophagy induction reads like this: under setting [1], -11.1228%; under setting [2], -2.718%; under setting [3], 17.5149%; under setting [4], -24.6575%.

For `C=C1/C(=C\C=C2/CCC[C@]3(C)[C@@H]([C@H](C)CCCC(C)(C)O)CC[C@@H]23)C[C@@H](O)C[C@@H]1O` [CALCITRIOL], the autophagy induction is 36.7455% under setting [1], -4.807% under setting [2], 11.5028% under setting [3] and -14.2726% under setting [4].

Consider `O=C(O)c1ccnc(N2CC(O)(c3ccc(OCc4c(-c5c(Cl)cccc5Cl)noc4C4CC4)cc3Cl)C2)c1` [CILOFEXOR], for which the autophagy induction is, setting by setting: under setting [1], 6.577%; under setting [2], 4.142%; under setting [3], 10.1768%; under setting [4], 9.429%.

Take `CC(C)(C[C@H]1CN(S(=O)(=O)c2cccc(C(F)(F)F)c2)c2cc(-c3cc(F)cc(OC(F)F)c3)ccc2O1)C(=O)O` [CINTIRORGON]: the autophagy induction was -13.5912% under setting [1], -2.372% under setting [2], 17.7364% under setting [3] and -18.8569% under setting [4].

Take `C[C@H]1[C@H]2CC[C@H]3[C@@H]4CC=C5C[C@@H](N(C)C)CC[C@]5(C)[C@H]4CC[C@]23CN1C` [CONESSINE]: the autophagy induction reads like this: under setting [1], -9.079%; under setting [2], -15.7832%; under setting [3], -16.9143%; under setting [4], 14.1244%.

As to `C=C1/C(=C\C=C2/CCC[C@]3(C)[C@@H]([C@H](C)/C=C/[C@H](C)C(C)C)CC[C@@H]23)C[C@@H](O)C[C@@H]1O` [DOXERCALCIFEROL], the autophagy induction by setting is: under setting [1], -0.6335%; under setting [2], -0.7736%; under setting [3], 0.8774%; under setting [4], -4.588%.

Take `CSc1ccc(C(=O)/C=C/c2cc(C)c(OC(C)(C)C(=O)O)c(C)c2)cc1` [ELAFIBRANOR]: the autophagy induction is -15.4717% under setting [1], -8.668% under setting [2], 8.143% under setting [3] and -14.713% under setting [4].

Turning to `CC(C)c1c(CN(C)C(C)Cc2ccccc2)n(C)n(-c2ccccc2)c1=O` (stereo unspecified) [FAMPROFAZONE], the autophagy induction reads like this: under setting [1], -9.526%; under setting [2], -5.45%; under setting [3], -2.084%; under setting [4], -36.1562%.

As to `COC(=O)/C=C/c1cccc(N(Cc2ccc(-c3ccc(N(C)C)cc3)cc2)C(=O)C2CCCCC2)c1` [FEXARAMINE], the autophagy induction under setting [1] was -11.8732%, the autophagy induction under setting [2] was 0.4959%, the autophagy induction under setting [3] stood at 16.8927% and the autophagy induction under setting [4] is listed as -24.9579%.

For the compound `CCc1ccc(N(CC(C)C)S(=O)(=O)c2ccc(OCC3CCOCC3)c(CO)c2)cc1` [GSK2981278], the autophagy induction runs as follows: under setting [1], 1.382%; under setting [2], -2.385%; under setting [3], -1.59%; under setting [4], 5.376%.

For `CCCCCCCN(CCc1ccc(SC(C)(C)C(=O)O)cc1)C(=O)Nc1ccc(F)cc1F` [GSK-9578], the autophagy induction is listed as -3.328% under setting [1], -4.346% under setting [2], -1.192% under setting [3] and -5.756% under setting [4].

For the compound `CC(C)(Sc1ccc(CCN(CCCCC2CCCCC2)C(=O)NC2CCCCC2)cc1)C(=O)O` [GW7647], the autophagy induction under setting [1] is on record as -14.4765%, the autophagy induction under setting [2] is given as -1.331%, the autophagy induction under setting [3] came out at 15.0253% and the autophagy induction under setting [4] is reported as -17.5748%.

`Cc1cc(SCc2sc(-c3ccc(C(F)(F)F)cc3)nc2C)ccc1OCC(=O)O` [GW501516]: the autophagy induction runs as follows: under setting [1], 35.2172%; under setting [2], -7.412%; under setting [3], 9.218%; under setting [4], -19.4944%.

As for `Cc1nc(-c2ccc(C(F)(F)F)cc2)sc1C(=O)NCc1ccc(OC(C)(C)C(=O)O)cc1` [GW590735], the autophagy induction by setting is: under setting [1], -16.082%; under setting [2], -2.956%; under setting [3], 16.0196%; under setting [4], -2.481%.

In the case of `O=C(O)CCCc1cc2cc(Cl)ccc2n1S(=O)(=O)c1ccc2ncsc2c1` [LANIFIBRANOR], the autophagy induction under setting [1] is given as -95.7021%, the autophagy induction under setting [2] is -0.9693%, the autophagy induction under setting [3] is listed as 14.6224% and the autophagy induction under setting [4] is -20.9711%.

As to `N[C@@H](Cc1cc(I)c(Oc2ccc(O)c(I)c2)c(I)c1)C(=O)O` [LIOTHYRONINE], the autophagy induction is 142.376% under setting [1], -11.4171% under setting [2], 8.172% under setting [3] and -7.587% under setting [4].

Turning to `CC[C@H](C)C(=O)O[C@H]1C[C@@H](C)C=C2C=C[C@H](C)[C@H](CC[C@@H]3C[C@@H](O)CC(=O)O3)[C@H]21` [LOVASTATIN], the autophagy induction by setting is: under setting [1], -7.01%; under setting [2], 13.8584%; under setting [3], 45.8036%; under setting [4], 48.5439%.

Consider `COc1ccc(OC(=O)N(CC(=O)O)Cc2ccc(OCCc3nc(-c4ccccc4)oc3C)cc2)cc1` [MURAGLITAZAR], for which the autophagy induction under setting [1] was found to be 84.7945%, the autophagy induction under setting [2] is -9.438%, the autophagy induction under setting [3] came out at 5.064% and the autophagy induction under setting [4] is -9.533%.

On to `O=C(O)c1ccc2cc(-c3ccc(O)c(C45CC6CC(CC(C6)C4)C5)c3)ccc2c1` [O-DEMETHYLATED ADAPALENE], for which the autophagy induction by setting is: under setting [1], -7.665%; under setting [2], -12.7242%; under setting [3], -13.449%; under setting [4], 12.49%.

As to `CC[C@H]1[C@@H](O)[C@@H]2[C@H](CC[C@]3(C)[C@@H]([C@H](C)CCC(=O)O)CC[C@@H]23)[C@@]2(C)CC[C@@H](O)C[C@@H]12` [OBETICHOLIC ACID], the autophagy induction is listed as -8.507% under setting [1], -7.962% under setting [2], -3.9436% under setting [3] and 2.71% under setting [4].
